Measurements: publication PMC4504433 (ACS Chemical Biology, 2014)

System: H3K79me2 in A431 cells
Experiment: High content imaging assay of H3K79me2
Details: 4 days

Nc1ncnc2c1ncn2[C@@H]1O[C@H](CSCC[C@H](N)C(=O)O)[C@@H](O)[C@H]1O [SAH]
reduction of H3K79 methylation, result in words: ineffective
